Measurements from ChEMBL document CHEMBL1140660, “Synthesis and structure-activity relationship of a novel, non-hydroxamate series of TNF-alpha converting enzyme inhibitors” (Bioorg Med Chem Lett, 2007).

Key:
[1] = target: Disintegrin and metalloproteinase domain-containing protein 17 (Sus scrofa, UniProt O77636); assay: Inhibition of porcine TACE
Stromelysin-1 = Stromelysin-1 (Homo sapiens, UniProt P08254); assay: Inhibition of MMP3
Matrilysin = target: T1, Matrilysin (Homo sapiens, UniProt P09237); assay: Inhibition of MMP7
T1 sequence (P09237 whole entry): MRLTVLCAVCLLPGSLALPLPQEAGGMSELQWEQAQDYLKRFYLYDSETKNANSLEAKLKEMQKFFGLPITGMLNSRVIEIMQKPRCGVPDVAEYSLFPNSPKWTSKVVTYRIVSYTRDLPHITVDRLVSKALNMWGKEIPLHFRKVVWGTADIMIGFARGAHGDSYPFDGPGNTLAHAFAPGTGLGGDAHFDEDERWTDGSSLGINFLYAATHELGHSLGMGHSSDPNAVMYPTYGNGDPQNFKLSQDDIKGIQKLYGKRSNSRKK

Collagenase 3 = Collagenase 3 (Homo sapiens, UniProt P45452); assay: Inhibition of MMP13
[2] = target: Macrophage metalloelastase (Homo sapiens, UniProt P39900); assay: Inhibition of MMP12
[3] = target: 72 kDa type IV collagenase (Homo sapiens, UniProt P08253); assay: Inhibition of MMP2
Chain of 72 kDa type IV collagenase (P08253 whole entry): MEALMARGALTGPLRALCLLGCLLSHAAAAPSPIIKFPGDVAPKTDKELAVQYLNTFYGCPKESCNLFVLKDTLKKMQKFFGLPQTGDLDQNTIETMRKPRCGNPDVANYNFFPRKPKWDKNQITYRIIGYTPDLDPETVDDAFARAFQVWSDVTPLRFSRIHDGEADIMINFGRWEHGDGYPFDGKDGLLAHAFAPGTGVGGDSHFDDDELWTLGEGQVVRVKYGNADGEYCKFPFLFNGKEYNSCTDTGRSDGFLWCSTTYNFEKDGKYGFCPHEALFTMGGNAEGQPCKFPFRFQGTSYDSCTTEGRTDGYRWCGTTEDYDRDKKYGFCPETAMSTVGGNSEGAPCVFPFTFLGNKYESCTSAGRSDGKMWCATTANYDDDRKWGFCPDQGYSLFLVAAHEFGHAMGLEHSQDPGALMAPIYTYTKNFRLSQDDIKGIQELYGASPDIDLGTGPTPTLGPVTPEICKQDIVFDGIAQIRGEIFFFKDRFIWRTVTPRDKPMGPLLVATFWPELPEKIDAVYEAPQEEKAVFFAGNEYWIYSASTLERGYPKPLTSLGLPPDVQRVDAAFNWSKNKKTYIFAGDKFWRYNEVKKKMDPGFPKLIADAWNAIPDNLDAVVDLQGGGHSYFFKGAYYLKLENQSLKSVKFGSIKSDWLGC

Chain of Macrophage metalloelastase (P39900 whole entry): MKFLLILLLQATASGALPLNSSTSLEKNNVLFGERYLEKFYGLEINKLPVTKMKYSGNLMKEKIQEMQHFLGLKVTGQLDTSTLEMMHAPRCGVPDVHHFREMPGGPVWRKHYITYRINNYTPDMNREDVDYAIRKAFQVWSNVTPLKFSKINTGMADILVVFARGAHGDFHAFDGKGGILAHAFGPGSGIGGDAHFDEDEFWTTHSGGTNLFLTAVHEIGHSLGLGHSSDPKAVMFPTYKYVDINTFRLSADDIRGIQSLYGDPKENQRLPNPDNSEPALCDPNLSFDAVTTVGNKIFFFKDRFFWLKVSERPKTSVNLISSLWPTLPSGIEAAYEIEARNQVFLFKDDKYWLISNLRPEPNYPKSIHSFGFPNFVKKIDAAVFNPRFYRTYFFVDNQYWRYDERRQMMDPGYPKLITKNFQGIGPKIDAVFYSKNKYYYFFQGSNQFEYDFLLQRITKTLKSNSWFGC
Chain of Disintegrin and metalloproteinase domain-containing protein 17 (O77636 whole entry, the tested form may be a part): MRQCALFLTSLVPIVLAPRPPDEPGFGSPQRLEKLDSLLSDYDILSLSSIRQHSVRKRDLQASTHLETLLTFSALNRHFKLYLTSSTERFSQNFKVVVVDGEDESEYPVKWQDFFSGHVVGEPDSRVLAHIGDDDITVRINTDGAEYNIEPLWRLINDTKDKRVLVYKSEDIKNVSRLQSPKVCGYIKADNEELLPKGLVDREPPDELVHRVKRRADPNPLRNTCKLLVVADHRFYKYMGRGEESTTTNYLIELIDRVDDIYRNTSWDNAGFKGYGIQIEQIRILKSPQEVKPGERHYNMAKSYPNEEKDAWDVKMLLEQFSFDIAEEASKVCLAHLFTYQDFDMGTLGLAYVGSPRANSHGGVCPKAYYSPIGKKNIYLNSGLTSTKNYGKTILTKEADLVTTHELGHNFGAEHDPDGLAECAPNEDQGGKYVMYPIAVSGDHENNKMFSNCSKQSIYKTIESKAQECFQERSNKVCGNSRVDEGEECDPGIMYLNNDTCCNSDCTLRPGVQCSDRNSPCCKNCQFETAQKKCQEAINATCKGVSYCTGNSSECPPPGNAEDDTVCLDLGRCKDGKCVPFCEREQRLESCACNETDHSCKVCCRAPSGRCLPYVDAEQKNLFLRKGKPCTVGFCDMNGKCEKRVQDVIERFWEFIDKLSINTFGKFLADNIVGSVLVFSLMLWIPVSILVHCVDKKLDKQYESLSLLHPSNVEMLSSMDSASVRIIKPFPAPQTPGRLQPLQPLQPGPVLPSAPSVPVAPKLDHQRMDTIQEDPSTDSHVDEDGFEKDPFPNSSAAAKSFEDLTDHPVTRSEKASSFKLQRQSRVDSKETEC
Chain of Stromelysin-1 (P08254 whole entry): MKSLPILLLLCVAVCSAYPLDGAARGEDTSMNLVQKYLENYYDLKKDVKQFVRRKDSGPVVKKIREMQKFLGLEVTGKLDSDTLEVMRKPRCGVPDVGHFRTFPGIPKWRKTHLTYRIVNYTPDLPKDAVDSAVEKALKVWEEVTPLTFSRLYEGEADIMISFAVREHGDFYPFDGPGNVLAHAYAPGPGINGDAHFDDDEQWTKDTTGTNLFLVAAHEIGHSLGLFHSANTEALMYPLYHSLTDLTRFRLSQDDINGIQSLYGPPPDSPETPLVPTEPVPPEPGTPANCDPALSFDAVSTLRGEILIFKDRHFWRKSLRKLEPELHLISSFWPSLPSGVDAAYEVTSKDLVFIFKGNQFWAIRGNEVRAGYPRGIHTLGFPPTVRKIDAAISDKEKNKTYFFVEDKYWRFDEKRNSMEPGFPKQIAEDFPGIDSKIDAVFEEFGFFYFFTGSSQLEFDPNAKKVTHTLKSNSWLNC

Structure (SMILES) | IC50 [1] [µM] | Ki (Stromelysin-1) [µM] | Ki (Matrilysin) [µM] | Ki (Collagenase 3) [µM] | Ki [2] [µM] | Ki [3] [µM]
CC(=O)N1CC[C@H](c2n[nH]c(=S)[nH]2)[C@H](NC(=O)c2ccc(OCc3cc(C)nc4ccccc34)cc2)C1 (relative stereo) | 0.0025 | > 4.5 | > 6.37 | 3.14 | > 6.02 | > 3.33
CCCN1CC[C@H](c2n[nH]c(=S)[nH]2)[C@H](NC(=O)c2ccc(OCc3cc(C)nc4ccccc34)cc2)C1 (relative stereo) | 0.015 | > 4.5 | > 6.37 | > 5.03 | > 6.02 | > 3.33
Cc1cc(COc2ccc(C(=O)N[C@@H]3CN(S(C)(=O)=O)CC[C@@H]3c3n[nH]c(=S)[nH]3)cc2)c2ccccc2n1 (relative stereo) | 0.028 | > 4.5 | > 6.37 | > 5.03 | > 6.02 | > 3.33
Cc1cc(COc2ccc(C(=O)N[C@@H]3CNCC[C@@H]3c3n[nH]c(=S)[nH]3)cc2)c2ccccc2n1 (relative stereo) | 0.0094 | > 4.5 | > 6.37 | > 5.03 | > 6.02 | > 3.33
Cc1cc(COc2ccc(C(=O)N[C@@H]3CN(C)CC[C@@H]3c3n[nH]c(=S)[nH]3)cc2)c2ccccc2n1 (relative stereo) | 0.016 | > 4.5 | 5.37 | > 5.03 | 0.958 | > 3.33
Cc1cc(COc2ccc(C(=O)N[C@@H]3CCC[C@@H]3c3n[nH]c(=S)[nH]3)cc2)c2ccccc2n1 (relative stereo) | 0.041 | > 4.5 | > 6.37 | > 5.03 | > 6.02 | > 3.33

More lines, in order of falling IC50 [1], values ahead:

IC50 [1] [µM] | Ki (Stromelysin-1) [µM] | Ki (Matrilysin) [µM] | Ki (Collagenase 3) [µM] | Ki [2] [µM] | Ki [3] [µM] | Structure (SMILES)
0.092 | > 4.5 | > 6.37 | > 5.03 | > 6.02 | > 3.33 | Cc1cc(COc2ccc(C(=O)N[C@@H]3CNC[C@@H]3c3n[nH]c(=S)[nH]3)cc2)c2ccccc2n1 (relative stereo)
0.075 | > 4.5 | > 6.37 | > 5.03 | > 6.02 | > 3.33 | Cc1cc(COc2ccc(C(=O)N[C@@H]3CN(C(=O)OC(C)(C)C)CC[C@@H]3c3n[nH]c(=S)[nH]3)cc2)c2ccccc2n1 (relative stereo)
0.073 | > 4.5 | > 6.37 | > 5.03 | > 6.02 | > 3.33 | C#CCN1CC[C@H](c2n[nH]c(=S)[nH]2)[C@H](NC(=O)c2ccc(OCc3cc(C)nc4ccccc34)cc2)C1 (relative stereo)
0.031 | > 4.5 | > 6.37 | > 5.03 | > 6.02 | > 3.33 | Cc1cc(COc2ccc(C(=O)N[C@@H]3CN(C(C)C)CC[C@@H]3c3n[nH]c(=S)[nH]3)cc2)c2ccccc2n1 (relative stereo)
0.0099 | > 4.5 | > 6.37 | 2.46 | > 6.02 | > 3.33 | CCCN1C[C@H](c2n[nH]c(=S)[nH]2)[C@H](NC(=O)c2ccc(OCc3cc(C)nc4ccccc34)cc2)C1 (relative stereo)
